A short description of this series: xn = mol fraction of the nth substance listed.

A word on the speed of sound: it is how fast a sound wave travels through the sample. For `CCCC[P+](CCCC)(CCCC)CCCC.F[B-](F)(F)F` + C1COCO1, the speed of sound by setting is: (298.15 K, 100 kPa, x1 = 0.002) 1341.9 m/s; (298.15 K, 100 kPa, x1 = 0.0052) 1400.4 m/s; (298.15 K, 100 kPa, x1 = 0.0073) 1474.1 m/s.

Usually viscosity stands for the internal friction of a fluid under shear. A higher viscosity goes with a thick fluid. Turning to `CCCO` + C=CC[n+]1ccn(C)c1.O=S(=O)([N-]S(=O)(=O)C(F)(F)F)C(F)(F)F, under “298.15 K, 100 kPa, x2 = 0”, the viscosity is 1.91 mPa·s.

For `CC[n+]1ccn(C)c1.[Cl-]` + CC#N, the viscosity is recorded as 36 mPa·s (373 K, 100 kPa, x2 = 0); 19 mPa·s (373 K, 100 kPa, x2 = 0.158); 7 mPa·s (373 K, 100 kPa, x2 = 0.472); 3 mPa·s (373 K, 100 kPa, x2 = 0.781).

`CCCC[n+]1ccn(C)c1.F[P-](F)(F)(F)(F)F` + CC(C)=O had an electrical conductivity (296.15 K, 101 kPa, x2 = 0.3522) of 0.84 S/m; an electrical conductivity (296.15 K, 101 kPa, x2 = 0.8801) of 3.91 S/m; an electrical conductivity (296.15 K, 101 kPa, x2 = 0.9514) of 2.99 S/m; an electrical conductivity (296.15 K, 101 kPa, x2 = 0.9778) of 1.73 S/m.

Molecule `CCCCCCCC[N+](C)(CCCCCCCC)CCCCCCCC.[Cl-]` + CCC(=O)O came in with a viscosity (298 K, 100 kPa, x1 = 0.5) of 650 mPa·s.

For the molecule `CCCC[P+](CCCC)(CCCC)CCCC.[Cl-]` + CCC(=O)O, the viscosity (298 K, 100 kPa, x1 = 0.5) is on record as 140 mPa·s.

Take `CCCCCCC[N+](CCCCCCC)(CCCCCCC)CCCCCCC.[Br-]` + CCCCCCCCCC(=O)O: the viscosity (318.15 K, 100 kPa, x1 = 0.333) came out at 205 mPa·s.

With `CCCCC[N+](CCCCC)(CCCCC)CCCCC.[Br-]` + CCCCCCCCCC(=O)O, the viscosity (318.15 K, 100 kPa, x1 = 0.333) turned out to be 178 mPa·s.

Consider `CCCCCCCCn1cc[n+](C)c1C.F[P-](F)(F)(F)(F)F` + CCCCCCCC[n+]1ccn(C)c1.F[P-](F)(F)(F)(F)F, for which the viscosity reads like this: (303.15 K, 100 kPa, x2 = 0.5) 440 mPa·s; (313.15 K, 100 kPa, x2 = 0.5) 241 mPa·s; (323.15 K, 100 kPa, x2 = 0.5) 144 mPa·s.

`CCCCCCCC[n+]1ccn(C)c1C.F[B-](F)(F)F` + CCCCCCCC[n+]1ccn(C)c1.F[P-](F)(F)(F)(F)F: the viscosity was 196 mPa·s (303.15 K, 100 kPa, x2 = 0.5); 116 mPa·s (313.15 K, 100 kPa, x2 = 0.5); 73.6 mPa·s (323.15 K, 100 kPa, x2 = 0.5); 50.6 mPa·s (333.15 K, 100 kPa, x2 = 0.5); 36.8 mPa·s (343.15 K, 100 kPa, x2 = 0.5); 29.1 mPa·s (353.15 K, 100 kPa, x2 = 0.5).

Regarding `c1ccccc1` + CCCCCCCCn1cc[n+](C)c1.O=S(=O)([N-]S(=O)(=O)C(F)(F)F)C(F)(F)F, the viscosity (293 K, 101 kPa, x2 = 0) is given as 0.641 mPa·s.

Take `O=C([O-])C(F)(F)F.[Na+]` + CCCCNC(N)=O: the viscosity is, setting by setting: (302.2 K, 101.3 kPa, x2 = 0.6576) 324 mPa·s; (305.5 K, 101.3 kPa, x2 = 0.6576) 196 mPa·s; (310.4 K, 101.3 kPa, x2 = 0.6576) 96 mPa·s; (311.4 K, 101.3 kPa, x2 = 0.6576) 85 mPa·s; (314.3 K, 101.3 kPa, x2 = 0.6576) 54 mPa·s; (317.5 K, 101.3 kPa, x2 = 0.6576) 37 mPa·s. For the same molecule, where the note is “322.4 K, 101.3 kPa, x2 = 0.6576”, the viscosity came to 21 mPa·s.

On to `CCCCCC(=O)O` + CCCC[N+](CCCC)(CCCC)CCCC.[Cl-], for which the viscosity (298 K, 100 kPa, x2 = 0.5) was 320 mPa·s.

For the molecule `CCCCCCCCCC(=O)O` + CCCC[N+](CCCC)(CCCC)CCCC.[Cl-], the viscosity by setting is: (298.15 K, 100 kPa, x2 = 0.333) 372 mPa·s; (328.15 K, 100 kPa, x2 = 0.333) 73.2 mPa·s; (358.15 K, 100 kPa, x2 = 0.333) 22.2 mPa·s.

`O` + CCCC[n+]1ccn(C)c1.F[B-](F)(F)F: the electrical conductivity came out at 0.0217 S/m (288.15 K, 100 kPa, x1 = 1) and 0.0402 S/m (318.15 K, 100 kPa, x1 = 1).

For `CCCC[n+]1ccn(C)c1.F[P-](F)(F)(F)(F)F` + CCCC[n+]1ccn(C)c1.O=S(=O)([N-]S(=O)(=O)C(F)(F)F)C(F)(F)F, the viscosity by setting is: (313.15 K, 100 kPa, x1 = 0.25) 36.48 mPa·s; (313.15 K, 100 kPa, x1 = 0.75) 73.2 mPa·s.

`CCCCn1cc[n+](C)c1.O=S(=O)([N-]S(=O)(=O)C(F)(F)F)c1ccc[cH-]1.[Fe+2].c1cc[cH-]c1` + CCCC[n+]1ccn(C)c1.O=S(=O)([N-]S(=O)(=O)C(F)(F)F)C(F)(F)F: the viscosity is reported as 1226.1 mPa·s (298.15 K, 100 kPa, x2 = 0.461); 542.8 mPa·s (298.15 K, 100 kPa, x2 = 0.56); 295.4 mPa·s (298.15 K, 100 kPa, x2 = 0.661); 108.5 mPa·s (298.15 K, 100 kPa, x2 = 0.839); 73.3 mPa·s (298.15 K, 100 kPa, x2 = 0.92).

On to `ClCCl` + CCCC[n+]1ccn(C)c1.O=S(=O)([N-]S(=O)(=O)C(F)(F)F)C(F)(F)F, for which the electrical conductivity (296.35 K, 100 kPa, x2 = 0.0271) amounted to 0.64 S/m; the electrical conductivity (296.35 K, 100 kPa, x2 = 0.039) is 0.79 S/m; the electrical conductivity (296.35 K, 100 kPa, x2 = 0.0623) amounted to 1.1 S/m; the electrical conductivity (296.35 K, 100 kPa, x2 = 0.1129) was found to be 1.32 S/m; the electrical conductivity (296.35 K, 100 kPa, x2 = 0.2144) was determined as 1.58 S/m.

Molecule `Oc1cccnc1` + CCCC[n+]1ccn(C)c1.[Cl-] gave a viscosity (293.15 K, 100 kPa, x1 = 0.5) of 153.7 mPa·s.

Take `O=c1cc[nH]cc1` + CCCC[n+]1ccn(C)c1.[Cl-]: the viscosity is given as 302 mPa·s (293.15 K, 100 kPa, x1 = 0.333) and 261 mPa·s (293.15 K, 100 kPa, x1 = 0.5).

For `[Cl][Al]([Cl])[Cl]` + CCCC[n+]1ccn(C)c1.[Cl-], the electrical conductivity came out at 1.29 S/m (306.15 K, 101 kPa, x2 = 0.5); 0.603 S/m (306.15 K, 101 kPa, x2 = 0.556); 0.373 S/m (306.15 K, 101 kPa, x2 = 0.588).

In turn, `CCCC[n+]1ccn(C)c1.O=S(=O)([N-]S(=O)(=O)C(F)(F)F)C(F)(F)F` + CCCCn1cc[n+](C)c1.O=S(=O)([N-]S(=O)(=O)C(F)(F)F)c1ccc[cH-]1.[Fe+2].c1cc[cH-]c1 had a viscosity (298.15 K, 100 kPa, x1 = 1) of 43.8 mPa·s.

With `C=CC[n+]1ccn(C)c1.O=S(=O)([N-]S(=O)(=O)C(F)(F)F)C(F)(F)F` + CCCO, the viscosity was 3.31 mPa·s (298.15 K, 100 kPa, x1 = 0.1); 6.61 mPa·s (298.15 K, 100 kPa, x1 = 0.3); 8.51 mPa·s (298.15 K, 100 kPa, x1 = 0.4); 13.42 mPa·s (298.15 K, 100 kPa, x1 = 0.6); 34.3 mPa·s (298.15 K, 100 kPa, x1 = 1).

For the molecule `CCCCCCCC/C=C\CCCCCCCC(=O)O` + CC[N+](CC)(CC)CC.[Cl-], the viscosity runs as follows: (298 K, 100 kPa, x2 = 0.25) 202.2 mPa·s; (303.2 K, 100 kPa, x2 = 0.25) 156.7 mPa·s; (333.2 K, 100 kPa, x2 = 0.25) 41.7 mPa·s.

With `[Cl][Al]([Cl])[Cl]` + CC[n+]1ccn(C)c1.[Cl-], the speed of sound by setting is: (298.15 K, 100 kPa, x2 = 0.38) 1411 m/s; (303.15 K, 100 kPa, x2 = 0.38) 1404.5 m/s; (313.15 K, 100 kPa, x2 = 0.38) 1391.8 m/s; (318.15 K, 100 kPa, x2 = 0.38) 1385.6 m/s. In addition, the electrical conductivity by setting is: (303.15 K, 101 kPa, x1 = 0.5) 2.49 S/m; (303.15 K, 101 kPa, x1 = 0.57) 2.12 S/m; (303.15 K, 101 kPa, x1 = 0.6) 1.91 S/m; (303.15 K, 101 kPa, x1 = 0.67) 1.63 S/m; (306.15 K, 101 kPa, x2 = 0.5) 2.66 S/m; (306.15 K, 101 kPa, x2 = 0.588) 0.982 S/m. In addition, under “306.15 K, 101 kPa, x2 = 0.625”, the electrical conductivity came to 0.663 S/m.

The molecule `O=C(O)CC(=O)O` + CC[n+]1ccn(C)c1.[Cl-] displayed a viscosity (313.15 K, 101.3 kPa, x2 = 0.667) of 80.8 mPa·s; a viscosity (323.15 K, 101.3 kPa, x2 = 0.667) of 49.2 mPa·s; a viscosity (333.15 K, 101.3 kPa, x2 = 0.667) of 33.5 mPa·s; a viscosity (343.15 K, 101.3 kPa, x2 = 0.667) of 23.06 mPa·s; a viscosity (353.15 K, 101.3 kPa, x2 = 0.667) of 17.84 mPa·s.

For the molecule `O=C[C@H](O)[C@@H](O)[C@H](O)[C@H](O)CO` + CC[n+]1ccn(C)c1.[Cl-], the viscosity is listed as 47 mPa·s (373 K, 100 kPa, x1 = 0.0082); 82 mPa·s (373 K, 100 kPa, x1 = 0.0829); 96 mPa·s (373 K, 100 kPa, x1 = 0.1256).

For the molecule `c1c[nH]cn1` + CC[n+]1ccn(C)c1.[Cl-], the viscosity by setting is: (298.2 K, 100 kPa, x2 = 0.333) 47.5 mPa·s; (298.2 K, 100 kPa, x2 = 0.667) 198 mPa·s.

Consider `CCOS(=O)(=O)[O-].CC[n+]1ccn(C)c1` + CN1CCCC1=O, for which the viscosity amounted to 155.5 mPa·s (288.15 K, 100 kPa, x1 = 1); 80.25 mPa·s (293.15 K, 100 kPa, x1 = 0.8821); 27.95 mPa·s (298.15 K, 100 kPa, x1 = 0.596); 5.615 mPa·s (318.15 K, 100 kPa, x1 = 0.3021).

The record behind these values is a compilation of properties of binary mixtures.
